Series [1] in a line: Human hepatocytes intrinsic clearance. Format: in vitro ADME. An excerpt:
Methods are described in Supplementary Methods 5 and 6. Enzyme assay results are means ± SD in multiple assays. ADME results are averages of n = 2 or 3 measurements in individual assays.

Another series concerns the target T1, hPFK-M (Homo sapiens, UniProt P08237).
T1 construct: made in house; host or cells: PFK-deficient Saccharomyces cerevisiae
T1 sequence (P08237 1-780): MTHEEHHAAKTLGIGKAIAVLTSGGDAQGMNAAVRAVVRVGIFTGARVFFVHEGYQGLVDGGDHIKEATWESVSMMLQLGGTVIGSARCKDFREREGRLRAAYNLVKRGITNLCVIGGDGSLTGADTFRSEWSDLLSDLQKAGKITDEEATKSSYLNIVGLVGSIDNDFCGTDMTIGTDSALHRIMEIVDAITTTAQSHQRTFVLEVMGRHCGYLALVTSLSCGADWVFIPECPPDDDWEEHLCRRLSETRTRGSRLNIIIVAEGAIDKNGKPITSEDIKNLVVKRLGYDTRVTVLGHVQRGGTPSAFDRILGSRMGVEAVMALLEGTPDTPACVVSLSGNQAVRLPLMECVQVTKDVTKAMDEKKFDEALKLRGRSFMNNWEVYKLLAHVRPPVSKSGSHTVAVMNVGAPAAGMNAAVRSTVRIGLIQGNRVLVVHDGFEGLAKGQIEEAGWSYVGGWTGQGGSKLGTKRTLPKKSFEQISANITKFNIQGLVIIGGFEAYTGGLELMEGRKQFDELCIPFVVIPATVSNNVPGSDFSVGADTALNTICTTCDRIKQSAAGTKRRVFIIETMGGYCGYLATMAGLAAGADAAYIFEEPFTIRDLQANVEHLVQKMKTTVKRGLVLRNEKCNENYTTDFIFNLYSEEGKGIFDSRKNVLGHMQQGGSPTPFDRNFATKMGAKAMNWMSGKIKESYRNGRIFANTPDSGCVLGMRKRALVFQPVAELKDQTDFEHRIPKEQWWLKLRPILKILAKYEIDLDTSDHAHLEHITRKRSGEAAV
Put plainly: ALDO/G3PDH/TIM linked enzyme assay, human PFK-M. The conditions noted are these: aldolase/TIM linked assay, 25 °C; highest concentration 100 µM. In kind it is biochemical. On the procedure:
Enzyme activity was measured using an aldolase/TIM linked assay at 25 °C. […] Experiments were carried out in duplicate. Data are presented as mean values ± standard deviation. […] Source data are provided as a Source Data File. b Kill time of CTCB-405 compared with existing HAT drugs in the clinic. […] Over 99% of trypanosomes were killed in under 30 min compared with much slower killing rates for the other drugs. The points on the graph for CTCB-405 were determined from two independent biological replicate experiments with each time point measured twice (using duplicate technical replicates). The ESD for each point on the graph is between 0.7 and 1.4%. For drugs in clinical use each point on the graph is the average of two technical replicates from one experiment (with a maximum difference of 7.8% for any of the points). Source data are provided as a Source Data File.
In the PFK/PYK/LDH assay, the linked PYK activity acts to convert the ADP produced by PFK back to ATP. As ATP is an inhibitor of human PFK (but not TbPFK) at concentrations higher than ~0.5 mM the regeneration of ATP is likely to affect the assay readout. […] TIM interconverts GA3P and DHAP, and DHAP is reduced to glycerol 3-phosphate by G3PD, alongside the oxidation of NADH to NAD^+, which was measured by observing the change in UV absorbance at 340 nm for 10 minutes at 25° C using a Spectramax© M5 Multimode plate reader. […]

In a further series the target is T2, TbPFK (Trypanosoma brucei brucei, UniProt O15648).
T2 construct: made in house; host or cells: Escherichia coli C41 (pET28a, codon optimised gene)
T2 sequence (O15648 1-487): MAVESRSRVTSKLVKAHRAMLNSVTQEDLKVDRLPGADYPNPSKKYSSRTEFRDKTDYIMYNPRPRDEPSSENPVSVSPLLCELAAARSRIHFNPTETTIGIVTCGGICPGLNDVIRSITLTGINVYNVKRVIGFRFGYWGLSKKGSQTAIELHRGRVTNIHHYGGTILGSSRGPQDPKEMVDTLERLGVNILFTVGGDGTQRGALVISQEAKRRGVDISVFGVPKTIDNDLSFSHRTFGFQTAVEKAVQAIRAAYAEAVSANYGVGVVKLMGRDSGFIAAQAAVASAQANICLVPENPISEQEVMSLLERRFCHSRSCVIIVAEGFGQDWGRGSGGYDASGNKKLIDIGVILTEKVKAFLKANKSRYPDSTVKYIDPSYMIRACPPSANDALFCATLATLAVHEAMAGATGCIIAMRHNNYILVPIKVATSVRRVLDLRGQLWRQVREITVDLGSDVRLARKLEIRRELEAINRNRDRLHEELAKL
Briefly: Isothermal titration calorimetry (ITC). In kind it is binding. The conditions noted are these: 25 °C.

Experimental findings from article PMC7887271, “Fast acting allosteric phosphofructokinase inhibitors block trypanosome glycolysis and cure acute African trypanosomiasis in mice” (Nature Communications, 2021) are described below.

The structures appear in SMILES notation.

The Kd is the equilibrium constant for the complex coming apart. Regarding `CN(C)CCn1ccc2c(ccn2Cc2ccc(Cl)c(Cl)c2)c1=O` [CTCB-405, 1-[(3,4-Dichlorophenyl)methyl]-5-[2-(dimethylamino)ethyl] pyrrolo[3,2-c]pyridin-4-one], in series [1], the “Human hepatocytes Clint” value is listed as 2.3 µL min^−1 per 10^6 cells. For the same compound, the “inhibition of hPFK-M” value against hPFK-M was “no significant inhibition”. The compound further displayed a Kd at TbPFK of 92 nM. At TbPFK (ITC), the TΔS contribution was -4.03 kcal/mol, the ΔG was -9.57 kcal/mol and the ΔH is -13.6 kcal/mol.
